Assay results reported in ChEMBL document CHEMBL1144154, “7-[1H-Indol-2-yl]-2,3-dihydro-isoindol-1-ones as dual Aurora-A/VEGF-R2 kinase inhibitors: design, synthesis, and biological activity” (Bioorg Med Chem Lett, 2008).
Calls of active or inactive are those of the source. The rule behind the calls is not given here.

Tests used:
[1] = molecular target: T1, Vascular endothelial growth factor receptor 2 (Homo sapiens, UniProt P35968); experiment: Inhibition of VEGFR2
[2] = molecular target: T2, Aurora kinase A (Homo sapiens, UniProt O14965); experiment: Inhibition of Aurora A
T2 sequence (O14965 whole entry): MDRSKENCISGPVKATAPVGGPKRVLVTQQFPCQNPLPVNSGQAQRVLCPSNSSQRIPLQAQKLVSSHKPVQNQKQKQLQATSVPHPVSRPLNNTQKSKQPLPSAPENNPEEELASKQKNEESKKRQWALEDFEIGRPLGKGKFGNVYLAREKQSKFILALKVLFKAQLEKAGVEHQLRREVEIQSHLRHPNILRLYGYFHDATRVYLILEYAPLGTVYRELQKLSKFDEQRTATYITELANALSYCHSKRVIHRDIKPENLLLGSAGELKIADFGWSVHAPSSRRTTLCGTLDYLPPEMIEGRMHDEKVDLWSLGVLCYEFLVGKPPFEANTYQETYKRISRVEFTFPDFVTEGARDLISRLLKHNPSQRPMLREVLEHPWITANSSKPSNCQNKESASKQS

[3] = molecular target: T3, Cyclin-dependent kinase 1 (Homo sapiens, UniProt P06493); experiment: Inhibition of CDK1
Target sequence in this assay (P06493 whole entry): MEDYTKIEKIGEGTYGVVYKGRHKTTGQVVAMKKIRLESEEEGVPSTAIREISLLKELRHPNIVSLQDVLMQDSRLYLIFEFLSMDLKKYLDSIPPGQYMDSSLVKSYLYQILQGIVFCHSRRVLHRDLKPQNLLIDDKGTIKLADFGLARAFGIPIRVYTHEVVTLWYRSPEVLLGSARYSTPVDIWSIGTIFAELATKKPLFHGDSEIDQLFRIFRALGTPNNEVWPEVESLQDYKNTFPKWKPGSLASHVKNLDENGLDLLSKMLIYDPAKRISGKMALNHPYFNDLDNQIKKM

[4] = molecular target: T1, Vascular endothelial growth factor receptor 2; experiment: Inhibition of VEGFR2 at 100 uM
[5] = molecular target: T4, Aurora kinase A (Homo sapiens) (UniProt O14965); experiment: Inhibition of Aurora A at 100 uM
T4 sequence (whole entry): T2 sequence (O14965 whole entry)

[6] = molecular target: T3, Cyclin-dependent kinase 1; experiment: Inhibition of CDK1 at 100 uM
Target sequence in this assay (P06493 whole entry, looked up): as the sequence (P06493 whole entry) above

[7] = system: A-375; experiment: Antitumor activity in human A375 cells […] nude mouse assessed as inhibition of tumor growth at 100 mg/kg, ip relative to control; type: functional; design: scale not given: the % may be the effect or the level left; conditions: route intraperitoneal
[8] = Oral bioavailability in rat at 10 mg/kg; type: ADME, organism-based; conditions: in vivo
[9] = Cmax in rat at 10 mg/kg, po; type: ADME, organism-based; design: dose 10 mg/kg, route oral; conditions: in vivo
[10] = Half life in rat at 10 mg/kg, po; type: ADME, organism-based; design: dose 10 mg/kg, route oral; conditions: in vivo
[11] = Drug concentration in nude mouse plasma at 10 mg/kg after 0.5 hrs; type: ADME, organism-based; design: dose 10 mg/kg
[12] = Drug concentration in nude mouse plasma at 10 mg/kg after 1 hr; type: ADME, organism-based; design: dose 10 mg/kg
[13] = Drug concentration in nude mouse plasma at 10 mg/kg after 2 hrs; type: ADME, organism-based; design: dose 10 mg/kg
[14] = Drug concentration in nude mouse plasma at 10 mg/kg after 4 hrs; type: ADME, organism-based; design: dose 10 mg/kg
[15] = system: HeLa; experiment: Induction of polyploidy in human HeLa cells assessed as increase in cells with >4N DNA content at 2.5 uM after 72 hrs by FACS analysis
[16] = molecular target: T1, Vascular endothelial growth factor receptor 2; experiment: Inhibition of VEGFR2 at 0.1 uM

T1 sequence (P35968 whole entry): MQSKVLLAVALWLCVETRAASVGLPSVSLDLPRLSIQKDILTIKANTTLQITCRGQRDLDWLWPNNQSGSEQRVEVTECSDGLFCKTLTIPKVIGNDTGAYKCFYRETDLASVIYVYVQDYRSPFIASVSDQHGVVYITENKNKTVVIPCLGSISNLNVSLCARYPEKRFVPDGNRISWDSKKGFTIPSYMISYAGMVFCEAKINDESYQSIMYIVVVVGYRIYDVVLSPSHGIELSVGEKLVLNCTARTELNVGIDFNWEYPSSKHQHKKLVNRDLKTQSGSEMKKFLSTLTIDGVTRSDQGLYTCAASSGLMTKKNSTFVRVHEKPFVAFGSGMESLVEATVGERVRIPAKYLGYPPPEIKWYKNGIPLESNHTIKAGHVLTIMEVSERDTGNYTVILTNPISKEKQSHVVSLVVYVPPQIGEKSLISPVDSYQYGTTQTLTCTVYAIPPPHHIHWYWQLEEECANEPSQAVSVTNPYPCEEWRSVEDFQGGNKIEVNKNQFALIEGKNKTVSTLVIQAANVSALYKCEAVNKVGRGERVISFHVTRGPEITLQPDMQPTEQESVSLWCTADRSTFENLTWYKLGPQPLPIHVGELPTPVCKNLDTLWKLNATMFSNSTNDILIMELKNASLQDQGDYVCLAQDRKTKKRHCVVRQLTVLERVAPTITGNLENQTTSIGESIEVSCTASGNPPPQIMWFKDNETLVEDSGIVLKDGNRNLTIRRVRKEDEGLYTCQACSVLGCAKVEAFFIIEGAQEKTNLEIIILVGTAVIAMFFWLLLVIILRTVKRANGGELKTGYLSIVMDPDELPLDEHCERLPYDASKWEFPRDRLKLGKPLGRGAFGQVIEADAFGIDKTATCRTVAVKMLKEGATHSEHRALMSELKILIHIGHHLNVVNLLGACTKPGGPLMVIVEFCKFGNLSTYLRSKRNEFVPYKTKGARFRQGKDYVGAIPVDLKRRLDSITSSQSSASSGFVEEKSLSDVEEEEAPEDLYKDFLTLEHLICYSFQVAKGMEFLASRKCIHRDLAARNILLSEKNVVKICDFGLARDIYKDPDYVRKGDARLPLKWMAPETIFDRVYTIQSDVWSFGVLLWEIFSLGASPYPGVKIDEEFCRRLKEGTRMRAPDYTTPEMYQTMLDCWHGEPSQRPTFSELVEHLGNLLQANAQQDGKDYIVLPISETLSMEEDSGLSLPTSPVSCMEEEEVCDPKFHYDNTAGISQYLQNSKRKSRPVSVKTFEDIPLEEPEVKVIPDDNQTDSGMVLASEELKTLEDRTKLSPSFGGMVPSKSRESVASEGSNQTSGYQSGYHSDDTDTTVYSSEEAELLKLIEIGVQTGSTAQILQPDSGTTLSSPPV

For `O=C1NCc2cccc(-c3cc4cc(OCCCN5CCC(O)CC5)ccc4[nH]3)c21`, the IC50 [1] was 18 nM, the IC50 [2] was 61 nM and the IC50 [3] was over 100000 nM.
In the case of `COc1ccc2[nH]c(-c3cccc4c3C(=O)NC4)nc2c1`, the IC50 [1] is reported as 142 nM and the IC50 [2] is reported as 205 nM.
In the case of `CC(C)(C)OC(=O)n1cccc1-c1cccc2c1C(=O)NC2`, the inhibition [4] is reported as 46%, the inhibition [5] is reported as 25% and the inhibition [6] is reported as under 10%.
For `COc1ccc(NC(=O)c2cccc3c2C(=O)NC3)cc1`, the IC50 [1] was 5940 nM and the inhibition [5] was 45%.
`O=C1NCc2cccc(-c3cc4cc(OCCN5CCCCC5)ccc4[nH]3)c21` showed an IC50 [1] of 56 nM, an IC50 [2] of 200 nM and an IC50 [3] of over 100000 nM. It also gave an Activity [7] of 46%, a bioavailability [8] of 20% and a Cmax [9] of 391 ng/mL. For the same compound, the half-life [10] was 54 min, the concentration at 0.5 h [11] was 154 ng/mL and the concentration at 1 h [12] was 160 ng/mL. The concentration at 2 h [13] was 41 ng/mL, the concentration at 4 h [14] was 12 ng/mL and the Activity [15] was “Active”.
For `O=C1NCc2cccc(-c3c[nH]c4ccccc34)c21`, the inhibition [4] was 50% and the inhibition [5] was 60%.
`COC(=O)c1cccc2c1C(=O)NC2` gave an IC50 [1] of over 100000 nM and an IC50 [2] of over 100000 nM.
`O=C(O)c1cccc2c1C(=O)NC2` showed an IC50 [1] of over 100000 nM and an IC50 [2] of over 100000 nM.
`CN1Cc2cccc(-c3ccc[nH]3)c2C1=O` gave an inhibition [4] of under 10%, an inhibition [5] of 37% and an inhibition [6] of 24%.
Compound `CCN1CCN(CCCOc2ccc3[nH]c(-c4cccc5c4C(=O)NC5)cc3c2)CC1` has an IC50 [1] of 14 nM, an IC50 [2] of 44 nM and an IC50 [3] of over 100000 nM.
`COc1ccc2[nH]c(-c3cccc4c3C(=O)NC4=O)cc2c1` gave an inhibition [5] of 30% and an inhibition [16] of 35%.
Compound `O=C1NCc2cccc(-c3cc4cc(OCCCO)ccc4[nH]3)c21` has an IC50 [1] of 30 nM, an IC50 [2] of 100 nM and an IC50 [3] of over 100000 nM.
In the case of `O=C1NCc2cccc(-c3cc4cc(OCCCN5CCCCC5)ccc4[nH]3)c21`, the IC50 [1] is reported as 65 nM, the IC50 [2] is reported as 179 nM and the IC50 [3] is reported as over 100000 nM.
Compound `O=C1NCc2cccc(-c3ccc[nH]3)c21` has an IC50 [1] of 1100 nM, an IC50 [2] of 338 nM and an inhibition [6] of 63%.
Compound `O=C1NCc2cccc(-c3cc4ccccc4[nH]3)c21` has an IC50 [1] of 144 nM, an IC50 [2] of 100 nM and an IC50 [3] of over 100000 nM.
Work on `CN1Cc2cccc(-c3cccn3C(=O)OC(C)(C)C)c2C1=O` yielded an IC50 [1] of over 100000 nM, an IC50 [2] of over 100000 nM and an IC50 [3] of over 100000 nM.
Compound `NC(=O)c1cccc2c1C(=O)NC2` has an IC50 [1] of over 100000 nM and an IC50 [2] of 14300 nM.
`O=C1NCc2cccc(-c3cc4cc(OCCN5CCOCC5)ccc4[nH]3)c21` showed an IC50 [1] of 74 nM, an IC50 [2] of 135 nM and an IC50 [3] of over 100000 nM.
Work on `O=C1NCc2cccc(-c3cc4cc(OCc5ccccc5)ccc4[nH]3)c21` yielded an IC50 [1] of 11300 nM, an IC50 [2] of 21200 nM and an IC50 [3] of over 100000 nM.
`O=C1NCc2cccc(-c3cc4cc(O)ccc4[nH]3)c21` gave an IC50 [1] of 119 nM, an IC50 [2] of 90 nM and an IC50 [3] of 13300 nM.
